# Laboratory results published in patent US11523610B2, “Regulating plant growth using a diapocarotenoid” (King Abdullah University of Science and Technology, priority 2018, dated 2022).
# Assays:
# pDR5::LUC seedlings = assay: Luciferase assay in pDR5::LUC auxin marker line; format: in vivo, Arabidopsis; conditions: 1 μM NF, 20 μM anchorene
# Procedure: Luciferase activity was assayed as previously described. Briefly, 1 mL of 5 mM Potassium Luciferin (Gold Biotechnology®) dissolved in water was directly applied to pDR5:LUC seedlings grown vertically on treated half strength MS plates. The luciferin solution was allowed to dry for 5-10 minutes in the dark, at room temperature. Seedlings were then imaged using a Lumazone™ CA automated Chemiluminescence system. Seven minute exposure times were used.
# A pDR5::LUC line, which marks LR prebranch sites, was used to track ANR development. […] ANR primordia initiation was observed as early as 3 dps, in anchorene treated pDR5::LUC and 158 pDR5rev::GFP seedling (FIGS. 5A-C).
# rice (Nipponbare) = assay: Rice hydroponic growth with anchorene; format: in vivo; conditions: 20 μM anchorene, 6 days
# Procedure: FIGS. 19A-E show anchorene promotes root growth in rice according to one or more embodiments of the present disclosure. […] Color photographs (B) and (C) show the comparison of the whole rice plant (B) and the root structure (C) under Mock and Anchorene treated conditions. (D) and (E) show quantification (cm) of the primary root length (D) and shoot length (E) under Mock and Anchorene treated conditions. 20 μM anchorene was used. The Nipponbare ecotype rice seeds were germinated for 4 days, and then transferred to Hoagland media hydroponic system with or without anchorene treatment for another 6 days. Anchorene was changed every 2 days for three times.
# For rice, sterilized Nipponbare seeds were kept at 30° C. in darkness for 1 day to stimulate germination and transferred to Petri dishes with half strength Murashige and Skoog (MS) media (with 0.5 g/L MES, pH 5.7) and autoclaved filter paper. Dishes were incubated in darkness for 2 days then exposed to light for 1 day in PERCIVAL® growth chamber (12 h light/12 h dark, 26° C., 55% humidity, 500 umol.m^−2.s^−1). Uniform, healthy rice seedlings were transferred to hydroponic culture (Hoagland) supplied with acetone (Mock) or 20 μM anchorene. […] Crown roots number, as well as shoot and root length and fresh weight were recorded to perform the phenotyping.
# [1] = system: Arabidopsis seedlings (root gravitropism); assay: Root gravitropism of NPA treated seedlings; format: in vivo; conditions: 5 DAG seedlings, 1 μM NPA plus 20 μM anchorene
# Procedure: To determine if the effect of anchorene on ANR development is caused by changes in auxin distribution, the activity of anchorene in the presence of NPA was evaluated. […] Vertical grown 5 DAG seedlings on half MSO with indicated treatments were analyzed. The orientation of root growth was measured and then was assigned to one of twelve 30° sectors. […] The auxin efflux carrier PIN3 plays an important role in LR initiation and emergence. Therefore, the effect of anchorene on PIN3 using the pPIN3::PIN3-GFP marker line was examined.
smiles,measurement,setting,value
"C\C(C=O)=C/C=C/C=C(\C)C=O [anchorene, 12,12′-diapocarotene-12,12′-dial]",LUC signal in the collet,pDR5::LUC seedlings,intensified the LUC signal
same,rice primary root and crown root growth,rice (Nipponbare),clear effect
same,rice shoot growth,rice (Nipponbare),not observed
same,gravitropism in NPA treated seedlings,[1],largely restored
